This assay concerns the target T1, Recombinant human cathepsin A (Homo sapiens, UniProt P10619).
T1 construct: Recombinant human cathepsin A (residues 29-480, with a C-terminal 10-His tag); 10-His (C); purchased R&D Systems 1049-SE
T1 sequence (P10619 29-326 limits assumed): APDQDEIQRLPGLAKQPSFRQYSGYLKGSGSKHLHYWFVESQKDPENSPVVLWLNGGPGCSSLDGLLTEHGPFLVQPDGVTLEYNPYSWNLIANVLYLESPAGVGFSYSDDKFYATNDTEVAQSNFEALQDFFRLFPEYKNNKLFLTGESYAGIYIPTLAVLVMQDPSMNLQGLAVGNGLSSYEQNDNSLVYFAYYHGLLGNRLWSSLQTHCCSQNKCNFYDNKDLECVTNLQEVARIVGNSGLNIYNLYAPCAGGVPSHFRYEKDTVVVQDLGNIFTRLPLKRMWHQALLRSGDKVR
T1 sequence (P10619 327-480 limits assumed): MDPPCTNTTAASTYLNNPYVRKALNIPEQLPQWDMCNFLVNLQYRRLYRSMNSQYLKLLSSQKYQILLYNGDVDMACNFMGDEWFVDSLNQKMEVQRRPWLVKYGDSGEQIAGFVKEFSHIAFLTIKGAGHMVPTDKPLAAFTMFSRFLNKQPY
The assay is described as follows: Cathepsin A inhibitory activity. It is filed as biochemical. The following applies: activated recombinant human cathepsin A 833 ng/ml, Bodipy FL-labeled bradykinin substrate 2 μM, pH 5.5, room temperature. The procedure, abridged: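 Enzyme (residues 29-480, C-terminal His tag) pre-activated by cathepsin L at 37° C, then quenched with E-64. Compound preincubated 15 min at room temperature in 25 mM MES pH 5.5 with 5 mM DTT, then 2 μM Bodipy FL-bradykinin added for 15 min at 833 ng/ml enzyme. Product/substrate separated by microfluidic capillary electrophoresis; IC50 from multi-concentration inhibition.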

Molecules are shown by their SMILES.

As usually defined, the IC50 is the concentration that gives 50% inhibition. On to `O=C(O)C[C@H](NC(=O)c1csc(-c2ccc(Cl)cc2)n1)c1cccc(F)c1` [Example 105, (S)-3-{[2-(4-Chloro-phenyl)-thiazole-4-carbonyl]-amino}-3-(3-fluoro-phenyl)-propionic acid], for which the IC50 amounted to 2.96 µM. The figure for `COc1cccc([C@H](CC(=O)O)NC(=O)c2csc(-c3ccc(Cl)cc3)n2)c1` [Example 106, (S)-3-{[2-(4-Chloro-phenyl)-thiazole-4-carbonyl]-amino}-3-(3-methoxy-phenyl)-propionic acid] is 17.3 µM. To `O=C(N[C@@H](Cc1ccc(Cl)cc1)C(=O)O)c1csc(-c2ccc(C(F)(F)F)cc2)n1` [Example 107, (S)-3-(4-Chloro-phenyl)-2-{[2-(4-trifluoromethyl-phenyl)-thiazole-4-carbonyl]-amino}-propionic acid] belongs 3.7 µM; to `COc1ccc([C@H](CC(=O)O)NC(=O)c2csc(-c3ccc(Cl)cc3)n2)cc1` [Example 108, (S)-3-{[2-(4-Chloro-phenyl)-thiazole-4-carbonyl]-amino}-3-(4-methoxy-phenyl)-propionic acid], 3.4 µM. For the compound `Cc1ccccc1[C@H](CC(=O)O)NC(=O)c1csc(-c2ccc(Cl)cc2)n1` [Example 109, (S)-3-{[2-(4-Chloro-phenyl)-thiazole-4-carbonyl]-amino}-3-o-tolyl-propionic acid], the IC50 amounted to 0.121 µM. The figure for `O=C(O)C[C@H](NC(=O)c1csc(-c2ccc(Cl)cc2)n1)c1ccccc1` [Example 110, (S)-3-{[2-(4-Chloro-phenyl)-thiazole-4-carbonyl]-amino}-3-phenyl-propionic acid] is 3.88 µM; for `Cc1ccccc1-c1nc(C(=O)N[C@@H](CC(=O)O)c2ccccc2C)cs1` [Example 111, (S)-3-o-Tolyl-3-[(2-o-tolyl-thiazole-4-carbonyl)-amino]-propionic acid] it is 0.106 µM. The figure for `Cc1ccccc1[C@H](CC(=O)O)NC(=O)c1csc(-c2ccc(C(F)(F)F)cc2)n1` [Example 112, (S)-3-o-Tolyl-3-{[2-(4-trifluoromethyl-phenyl)-thiazole-4-carbonyl]-amino}-propionic acid] is 1.31 µM; for `Cc1ccccc1-c1nc(C(=O)N[C@@H](CC(=O)O)c2ccccc2)cs1` [Example 113, (S)-3-Phenyl-3-[(2-o-tolyl-thiazole-4-carbonyl)-amino]-propionic acid] it is 0.322 µM; for `Cc1ccccc1-c1nc(C(=O)NCC(C(=O)O)c2ccccc2)cs1` (centres unmarked) [Example 114, 2-Phenyl-3-[(2-o-tolyl-thiazole-4-carbonyl)-amino]-propionic acid] it is 7.04 µM.

On to `O=C(NCC(C(=O)O)c1ccccc1)c1csc(-c2ccccc2)n1` (centres unmarked) [Example 115, 2-Phenyl-3-[(2-phenyl-thiazole-4-carbonyl)-amino]-propionic acid], for which the IC50 worked out at 4.88 µM. In the case of `O=C(NCC(C(=O)O)c1ccccc1)c1csc(-c2cccc(Cl)c2Cl)n1` (centres unmarked) [Example 116, 3-{[2-(2,3-Dichloro-phenyl)-thiazole-4-carbonyl]-amino}-2-phenyl-propionic acid], the half-inhibitory concentration (IC50) is 7.71 µM. To `O=C(O)CC(Cc1ccccc1)NC(=O)c1csc(-c2cccc(Cl)c2Cl)n1` (centres unmarked) [Example 117, 3-{[2-(2,3-Dichloro-phenyl)-thiazole-4-carbonyl]-amino}-4-phenyl-butyric acid] belongs 2.75 µM. On to `O=C(NCC(C(=O)O)c1ccccc1)c1csc(-c2ccccc2Cl)n1` (centres unmarked) [Example 118, 3-{[2-(2-Chloro-phenyl)-thiazole-4-carbonyl]-amino}-2-phenyl-propionic acid], for which the IC50 was found to be 6.04 µM.

For the compound `O=C(O)CC(NC(=O)c1csc(-c2ccccc2Cl)n1)C1CCCCC1` (centres unmarked) [Example 119, 3-{[2-(2-Chloro-phenyl)-thiazole-4-carbonyl]-amino}-3-cyclohexyl-propionic acid], the IC50 turned out to be 0.68 µM. Regarding `O=C(O)CC(Cc1ccccc1)NC(=O)c1csc(-c2ccccc2Cl)n1` (centres unmarked) [Example 120, 3-{[2-(2-Chloro-phenyl)-thiazole-4-carbonyl]-amino}-4-phenyl-butyric acid], the IC50 came out at 1.45 µM. The figure for `O=C(NCC(C(=O)O)c1ccccc1)c1csc(-c2ccccc2F)n1` (centres unmarked) [Example 121, 3-{[2-(2-Fluoro-phenyl)-thiazole-4-carbonyl]-amino}-2-phenyl-propionic acid] is 12.6 µM. The figure for `O=C(O)CC(Cc1ccccc1)NC(=O)c1csc(-c2ccccc2F)n1` (centres unmarked) [Example 122, 3-{[2-(2-Fluoro-phenyl)-thiazole-4-carbonyl]-amino}-4-phenyl-butyric acid] is 4.42 µM; for `O=C(NCC(C(=O)O)c1ccccc1)c1csc(-c2cccc(Cl)c2)n1` (centres unmarked) [Example 123, 3-{[2-(3-Chloro-phenyl)-thiazole-4-carbonyl]-amino}-2-phenyl-propionic acid] it is greater than 10 µM.

In the case of `O=C(O)CC(NC(=O)c1csc(-c2cccc(Cl)c2)n1)C1CCCCC1` (centres unmarked) [Example 124, 3-{[2-(3-Chloro-phenyl)-thiazole-4-carbonyl]-amino}-3-cyclohexyl-propionic acid], the IC50 amounted to 3.42 µM. The figure for `O=C(O)CC(Cc1ccccc1)NC(=O)c1csc(-c2cccc(Cl)c2)n1` (centres unmarked) [Example 125, 3-{[2-(3-Chloro-phenyl)-thiazole-4-carbonyl]-amino}-4-phenyl-butyric acid] is 9.06 µM; for `O=C(O)CC(NC(=O)c1csc(-c2ccc(Cl)cc2)n1)C1CCCCC1` (centres unmarked) [Example 126, 3-{[2-(4-Chloro-phenyl)-thiazole-4-carbonyl]-amino}-3-cyclohexyl-propionic acid] it is 3.94 µM; for `O=C(O)CC(Cc1ccccc1)NC(=O)c1csc(-c2ccc(Cl)cc2)n1` (centres unmarked) [Example 127, 3-{[2-(4-Chloro-phenyl)-thiazole-4-carbonyl]-amino}-4-phenyl-butyric acid] it is 12.6 µM. The figure for `Cc1ccccc1-c1nc(C(=O)NC(CC(=O)O)C2CCCCC2)cs1` (centres unmarked) [Example 128, 3-Cyclohexyl-3-[(2-o-tolyl-thiazole-4-carbonyl)-amino]-propionic acid] is 0.81 µM. On to `O=C(O)CC(NC(=O)c1csc(-c2ccccc2)n1)C1CCCCC1` (centres unmarked) [Example 129, 3-Cyclohexyl-3-[(2-phenyl-thiazole-4-carbonyl)-amino]-propionic acid], for which the IC50 amounted to 1.12 µM. The figure for `O=C(O)CC(NC(=O)c1csc(-c2cccc(Cl)c2Cl)n1)C1CCCCC1` (centres unmarked) [Example 130, 3-Cyclohexyl-3-{[2-(2,3-dichloro-phenyl)-thiazole-4-carbonyl]-amino}-propionic acid] is 1.1 µM; for `O=C(O)CC(NC(=O)c1csc(-c2ccccc2F)n1)C1CCCCC1` (centres unmarked) [Example 131, 3-Cyclohexyl-3-{[2-(2-fluoro-phenyl)-thiazole-4-carbonyl]-amino}-propionic acid] it is 1.43 µM; for `O=C(O)CC(NC(=O)c1csc(-c2ccc(C(F)(F)F)cc2)n1)C1CCCCC1` (centres unmarked) [Example 132, 3-Cyclohexyl-3-{[2-(4-trifluoromethyl-phenyl)-thiazole-4-carbonyl]-amino}-propionic acid] it is 11.2 µM. The figure for `Cc1ccccc1-c1nc(C(=O)NC(CC(=O)O)Cc2ccccc2)cs1` (centres unmarked) [Example 133, 4-Phenyl-3-[(2-o-tolyl-thiazole-4-carbonyl)-amino]-butyric acid] is 3.37 µM; for `O=C(O)CC(Cc1ccccc1)NC(=O)c1csc(-c2ccccc2)n1` (centres unmarked) [Example 134, 4-Phenyl-3-[(2-phenyl-thiazole-4-carbonyl)-amino]-butyric acid] it is 3.42 µM. `O=C(O)CC(Cc1ccccc1)NC(=O)c1csc(-c2ccc(C(F)(F)F)cc2)n1` (centres unmarked) [Example 135, 4-Phenyl-3-{[2-(4-trifluoromethyl-phenyl)-thiazole-4-carbonyl]-amino}-butyric acid]: the IC50 was 22.2 µM. Take `Cc1ccccc1[C@H](CC(=O)O)NC(=O)c1nc(-c2ccccc2)cs1` [Example 136, (S)-3-[(4-Phenyl-thiazole-2-carbonyl)-amino]-3-o-tolyl-propionic acid]: the IC50 is 0.0889 µM.

For the origin of these results see patent US9174952B2, “Substituted 3-thiazoloamino-propionic acid derivatives and their use as pharmaceuticals” (SANOFI, priority 2011, dated 2015).
